Literature values as cited in US20050053658A1, “Extended release systems for macrolide antibiotics” (priority 2003, published 2005).

- water solubility: poorly water soluble
Compound: CC[C@H]1OC(=O)[C@H](C)[C@@H](O[C@H]2C[C@@](C)(OC)[C@@H](O)[C@H](C)O2)[C@H](C)[C@@H](O[C@@H]2O[C@H](C)C[C@H](N(C)C)[C@H]2O)[C@](C)(OC)C[C@@H](C)C(=O)[C@H](C)[C@@H](O)[C@]1(C)O [Clarithromycin]
